Test results reported in US6440987B1, “Antipruritic” (Toray Industries, Inc., priority 1996, dated 2002).

Legend:
guinea pig ileum = assay: Assay of opioid activity by guinea pig ileum assay (electrically evoked contraction of longitudinal muscle strip); conditions: for IC50: Cavia porcellus, inhibition of electrically evoked contraction, absence of antagonist; for Ke (nM) Naloxone (100 nM): naloxone as μ antagonist; for Ke (nM) nor-BNI (5 nM): nor-BNI as κ antagonist
Description: Assay of opioid activity by Guinea pig ileum assay.
Male Hartley guinea pigs were used. The guinea pig was killed with a blow, and the ileum excised; the lumen of ileum was washed with a nutritious fluid; and only a piece of longitudinal muscle was stripped. This longitudinal muscle strip was suspended in a Magnus tube filled with Krebes-Henseleit solution (NaCl 135 mM; KCl 4.8 mM; CaCl2 3.4 mM; KH2PO4 1.2 mM; NaHCO3 8.3 mM; MgSO4, 2.5 mM; and glucose 11 mM) kept at 37° C., and gassed with a mixture of 5% carbon dioxide and 95% oxygen. Electrical stimulation was delivered at a rate of 0.1 Hz with 0.5 ms pulses through ring-shaped platinum electrodes placed at upper and lower levels in a Magnus tube. Tissue contractions were recorded via an isometric transducer on a polygraph.
The test drug was cumulatively added until it inhibited over 50% the contraction of specimen evoked by the electrical stimulation, in the presence or absence of naloxone as a μ antagonist, or nor-BNI as a κ antagonist, and IC50s were calculated for respective experimental conditions. From the difference in drug efficacy in the presence and absence of the antagonist, Ke values were calculated on the basis of following equations.
(§1) Ke=[Concentration of antagonist added]/(Dose ratio−1)
Dose ratio=IC50 in the presence of antagonist/IC50 in the absence of antagonist

mouse vas deferens = assay: Assay of opioid activity by mouse vas deferens assay (electrically evoked contraction); conditions: for Ke (nM) NTI (10 nM): NTI as δ antagonist; for IC50: inhibition of electrically evoked contraction, absence of antagonist; for Ke (nM) Naloxone (30 nM): naloxone as μ antagonist; for Ke (nM) nor-BNI (10 nM): nor-BNI as κ antagonist
Description: Assay of opioid activity by mouse vas deferens assay
Male ddY mice were used for the experiment. The vas deferens specimen removed from the animal was suspended in a Magnus tube filled with Krebes-Henseleit solution (NaCl […]; KCl 5.9 mM; CaCl2 2.5 mM; NaH2PO4 1.2 mM; NaHCO3 15.3 mM; and glucose 11.5 mM) kept at 37° C., and gassed with a mixture of 5% carbon dioxide and 95% oxygen. Electrical stimulation was delivered at a rate of 0.1 Hz with 1.0 ms pulses through ring-shaped platinum electrodes placed at upper and lower levels in a Magnus tube. Tissue contractions were recorded via an isometric transducer on a polygraph.
test drug was cumulatively added until it inhibited over 50% the contraction of specimen evoked by the electrical stimulation, in the presence or absence of naloxone as a μ antagonist, nor-BNI as a κ antagonist, or NTI as a δ antagonist and IC50s were calculated for respective experimental conditions. From the difference in drug efficacy in the presence and absence of the antagonist, Ke values were calculated on the basis of following equations.
as §1
IC50 ratio=IC50 in the presence of antagonist/IC50 in the absence of antagonist

[1] = system: itching of erupted lesions of urticaria; assay: Topical application to erupted lesions of urticaria, intensity of itching; type: in vivo, human; set-up: key to Intensity of itching five minutes after the treatment: itching whose intensity was evaluated as moderate (ranked as “++”); completely eradicated five minutes after the treatment (ranked as “−”); conditions: male adult
Description: An opioid compound selectively acting on a κ receptor, (−)-17-(cyclopropylmethyl)-3,14β-dihydroxy-4,5α-epoxy-6β-[N-methyl-trans-3-(3-furyl)acrylamido]morphinan hyrochloride 7, [drawing 52]
was dissolved in physiological saline, to give an aqueous solution with a concentration of 40 μg/ml. This aqueous solution was topically applied to three erupted lesions of urticaria, on the lower limb of an adult at a dose of 0.2 μg/cm^2.

[2] = system: itching due to atopic dermatitis; assay: Topical application to skin lesions of a patient with atopic dermatitis, intensity of itching; type: in vivo, human
Description: The drug solution was applied on five spots with a volume of about 50 μl per 10 cm^2, which was equivalent to a topical dose of 0.2 μg/cm^2. As a comparison, indomethacin cream (having a drug concentration of 7.5 mg/g) was applied at a dose of 75 μg/cm2 in the same manner.

[3] = system: scratching behavior induced by Compound 48/80; set-up: species or system ddY mice; conditions: mouse, in vivo, sc
[4] = topical, Compound 7 0.2 μg/cm^2, indomethacin cream 75 μg/cm2, prior to application +++

Row | SMILES | IC50 (guinea pig ileum) [nM] | Ke (nM) Naloxone (100 nM) (guinea pig ileum) [nM] | Ke (nM) nor-BNI (5 nM) (guinea pig ileum) [nM] | Ke (nM) NTI (10 nM) (mouse vas deferens) [nM] | IC50 (mouse vas deferens) [nM] | Ke (nM) Naloxone (30 nM) (mouse vas deferens) [nM] | Ke (nM) nor-BNI (10 nM) (mouse vas deferens) [nM] | melting point | Inhibition (%) of scratching behavior [3] [%] | also measured
1 | CN(C(=O)/C=C/c1ccoc1)[C@@H]1CC[C@@]2(O)[C@H]3Cc4ccc(O)c5c4[C@@]2(CC[N+]3(C)CC2CC2)[C@H]1O5.[I-] (stereo partly drawn) [Compound 1, 17-cyclopropylmethyl-3,14β-dihydroxy-4,5α-epoxy-17-methyl-6β-(N-methyl-trans-3-(3-furyl)acrylamido)morphinanium iodide] | 1.94 | 16.67 | 0.03 | 11.23 | 4.42 | 14.18 | 0.17 | 202.4 to 207.9 °C (dec.) |  | 
2 | COc1cccc(/C=C/C(=O)N(C)[C@@H]2CC[C@@]3(O)[C@H]4Cc5ccc(O)c6c5[C@@]3(CC[N+]4(C)CC3CC3)[C@H]2O6)c1.[I-] (stereo partly drawn) [Compound 2, 17-cyclopropylmethyl-3,14β-dihydroxy-4,5α-epoxy-17-methyl-6β-(N-methyl-3-methoxycinnamamido)morphinanium.iodide] | 6.71 | 98.2 | 0.54 | 25 | 5.9 | 100 | 0.45 |  |  | 
3 | CN(C(=O)/C=C/c1ccoc1)[C@@H]1CC[C@@]2(O)[C@H]3Cc4ccc(O)c5c4[C@@]2(CC[N+]3([O-])CC2CC2)[C@H]1O5 (stereo partly drawn) [Compound 3, 17-cyclopropylmethyl-4,5α-epoxy-3,14β-dihydroxy-6β-[N-methyl-trans-3-(3-furyl)acrylamido]morphinan-N-oxide] | 1.06 |  | 0.02 |  | 2.14 | 30.48 | 0.040 | 238 to 239.8 °C (dec.) |  | 
4 | COc1cccc(/C=C/C(=O)N(C)[C@@H]2CC[C@@]3(O)[C@H]4Cc5ccc(O)c6c5[C@@]3(CC[N+]4([O-])CC3CC3)[C@H]2O6)c1 (stereo partly drawn) [Compound 4, 17-cyclopropylmethyl-4,5α-epoxy-3,14β-dihydroxy-6β-(N-methyl-3-methoxycinnamamido)morphinan-N-oxide] | 4.09 | 28.7 | 0.09 | 11 | 1.8 | 50 | 0.67 | 234 to 236.8 °C (dec.) |  | 
5 | CN(C(=O)C#Cc1ccc(C(F)(F)F)cc1)[C@@H]1CC[C@@]2(O)[C@H]3Cc4ccc(O)c5c4[C@@]2(CC[N+]3([O-])CC2CC2)[C@H]1O5 (stereo partly drawn) [Compound 5, 17-cyclopropylmethyl-4,5α-epoxy-3,14β-dihydroxy-6β-[N-methyl-3-(4-trifluoromethylphenyl)propyolamido]morphinan-N-oxide] | 1.55 | 29.5 | 0.19 | 5.0 | 0.59 | 5.9 | 0.33 | 205 to 208 °C (dec.) |  | 
6 | Cc1cccc(C#CC(=O)N(C)[C@@H]2CC[C@@]3(O)[C@H]4Cc5ccc(O)c6c5[C@@]3(CC[N+]4([O-])CC3CC3)[C@H]2O6)c1 (stereo partly drawn) [Compound 6, 17-cyclopropylmethyl-4,5α-epoxy-3,14β-dihydroxy-6β-[N-methyl-3-(3-methylphenyl)propyolamido]morphinan-N-oxide] | 11.3 | 75.1 | 0.89 | 20 | 4.6 |  | 0.26 | 192 to 202 °C (dec.) |  | 
7 | CN(C(=O)/C=C/c1ccoc1)[C@@H]1CC[C@@]2(O)[C@H]3Cc4ccc(O)c5c4[C@@]2(CCN3CC2CC2)[C@H]1O5.Cl [Compound 7, (−)-17-(cyclopropylmethyl)-3,14β-dihydroxy-4,5α-epoxy-6β-[N-methyl-trans-3-(3-furyl)acrylamido]morphinan hyrochloride] |  |  |  |  |  |  |  |  |  | Intensity of itching five minutes after the treatment ([1]; urticaria lesions on lower limb, topical 0.2 μg/cm^2 (40 μg/ml in saline), before treatment “++”): −; Duration of no itching state ([1]; urticaria, topical 0.2 μg/cm^2): about five; Duration of no itching state ([2]; topical 0.2 μg/cm^2): at least three; Relief from itching (in words) ([2]; topical, Compound 7 0.2 μg/cm^2 (in five minutes), indomethacin cream 75 μg/cm2): eradicated itching completely; Intensity of itching 5 minutes after application [2, 4]: −; Intensity of itching 10 minutes after application [2, 4]: −; Intensity of itching 3 hours after application [2, 4]: −
8 | CN(C(=O)NCc1ccccc1)[C@H]1CC[C@@]2(O)[C@H]3Cc4ccc(O)c5c4[C@@]2(CCN3CC2CC2)[C@H]1O5.O=C(O)C(O)C(O)C(=O)O [Compound 12, 17-cyclopropylmethyl-3,14β-dihydroxy-4,5α-epoxy-6α-(N-methyl-N-benzylureido)morphinan tartrate] |  |  |  |  |  |  |  |  | 39 | 
9 | CN(C(=O)Cc1ccc(Cl)c(Cl)c1)C(CN1CCCC1)c1ccccc1.Cl (stereo not drawn) [Compound 20] |  |  |  |  |  |  |  |  | 62 | 
10 | Cl.O=C(C1CCc2cc(Cl)c(Cl)cc21)N1CCSCC1CN1CCCC1 (stereo not drawn) [Compound 21, 3-(1-pyrrolidinylmethyl)-4-[5,6-dichloro-1-indancarbonyl]-tetrahydro-1,4-thiazine hydrochloride] |  |  |  |  |  |  |  |  | 23 | 
